From patent US11135234B2, “Effective aminoglycoside antibiotic for multidrug-resistant bacteria” (MICROBIAL CHEMISTRY RESEARCH FOUNDATION, priority 2015, dated 2021) come the findings set out here.

Converted amounts (≈) assume the structure as drawn.

One experiment has as its system S. aureus MF490. As to the kind of experiment: MIC, agar plate dilution method, S. aureus MF490. It is filed as cell-based, Staphylococcus aureus. The note with it: for MIC: Staphylococcus aureus, MRSA, read-out: minimal inhibitory concentration (MIC); for minimal inhibitory concentration (MIC): S. aureus MF490, MRSA. An outline of the steps:
(§1)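 MIC values, expressed in μg/mL, come from an agar plate dilution assay run as the Japan Society of Chemotherapy describes.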

The next experiment has as its system P. aeruginosa MSC17707. As to the kind of experiment: MIC, agar plate dilution method, P. aeruginosa MSC17707. The experiment is classed as cell-based, Pseudomonas aeruginosa. The following applies: for MIC: Pseudomonas aeruginosa, MSC17707, P. aeruginosa MSC17707, AMK-resistant, read-out: minimal inhibitory concentration (MIC); for minimal inhibitory concentration (MIC): P. aeruginosa MSC17707, AMK-resistant. The essentials: as §1

The next experiment deals with S. aureus RN4220/pMS520. The experiment can be described thus: MIC, agar plate dilution method, S. aureus RN4220/pMS520. The following applies: for MIC: Staphylococcus aureus, MRSA, read-out: minimal inhibitory concentration (MIC), S. aureus RN4220/pMS520, MRSA; for minimal inhibitory concentration (MIC): S. aureus RN4220/pMS520, MRSA. The experiment is classed as cell-based, Staphylococcus aureus. An outline of the steps:
as §1

In a further experiment the test system is S. aureus RN4220. As to the kind of experiment: MIC, agar plate dilution method, S. aureus RN4220. It is filed as cell-based, Staphylococcus aureus. The following applies: for MIC: Staphylococcus aureus, RN4220, S. aureus RN4220, Sensitive bacterium, read-out: minimal inhibitory concentration (MIC); for minimal inhibitory concentration (MIC): S. aureus RN4220, Sensitive bacterium. An outline of the steps: as §1

In the next experiment the test system is P. aeruginosa MSC01035. The experiment can be described thus: MIC, agar plate dilution method, P. aeruginosa MSC01035. It is filed as cell-based, Pseudomonas aeruginosa. The note with it: P. aeruginosa MSC01035, ABK-resistant; for MIC: Pseudomonas aeruginosa, read-out: minimal inhibitory concentration (MIC). An outline of the steps: as §1
In experiment [1] the test system is K. pneumoniae ATCC BAA-2146. As to the kind of experiment: MIC, agar plate dilution method, K. pneumoniae ATCC BAA-2146. The following applies: for MIC: Klebsiella pneumoniae, ATCCBAA2146, K. pneumoniae ATCC BAA-2146, NDM-producing strain, read-out: minimal inhibitory concentration (MIC); for minimal inhibitory concentration (MIC): K. pneumoniae ATCC BAA-2146, NDM-producing strain. The experiment is classed as cell-based, Klebsiella pneumoniae. An outline of the steps:
as §1

For experiment [2], the system named is A. baumannii ATCC BAA-1710. As to the kind of experiment: MIC, agar plate dilution method, A. baumannii ATCC BAA-1710. It is filed as cell-based, Acinetobacter baumannii. The following applies: for MIC: Acinetobacter baumannii, ATCCBAA1710, A. baumannii ATCC BAA-1710, MDRA, read-out: minimal inhibitory concentration (MIC); for minimal inhibitory concentration (MIC): A. baumannii ATCC BAA-1710, MDRA. An outline of the steps: as §1

Experiment [3] concerns K. pneumoniae ATCC BAA-1705. The experiment can be described thus: MIC, agar plate dilution method, K. pneumoniae ATCC BAA-1705. It is filed as cell-based, Klebsiella pneumoniae. The note with it: for MIC: Klebsiella pneumoniae, ATCCBAA1705, K. pneumoniae ATCC BAA-1705, KPC-producing strain, read-out: minimal inhibitory concentration (MIC); for minimal inhibitory concentration (MIC): K. pneumoniae ATCC BAA-1705, KPC-producing strain. An outline of the steps:
as §1

The subject of another experiment is E. faecium ATCC19434. The experiment can be described thus: MIC, agar plate dilution method, E. faecium ATCC19434. The experiment is classed as cell-based, Enterococcus faecium. The note with it: for MIC: Enterococcus faecium, ATCC19434, E. faecium ATCC19434, read-out: minimal inhibitory concentration (MIC); for minimal inhibitory concentration (MIC): E. faecium ATCC19434. An outline of the steps: as §1

Another experiment concerns E. coli JM109/pMW218. As to the kind of experiment: MIC, agar plate dilution method, E. coli JM109/pMW218. It is filed as cell-based, Escherichia coli. The following applies: for MIC: Escherichia coli, JM109/PMW218, E. coli JM109/pMW218, Sensitive bacterium, read-out: minimal inhibitory concentration (MIC); for minimal inhibitory concentration (MIC): E. coli JM109/pMW218, Sensitive bacterium. The essentials:
as §1

The next experiment relates to S. marcescens GN6944. As to the kind of experiment: MIC, agar plate dilution method, S. marcescens GN6944. It is filed as cell-based, Serratia marcescens. The following applies: S. marcescens GN6944, GM-resistant; for MIC: Serratia marcescens, read-out: minimal inhibitory concentration (MIC). The essentials: as §1
Another experiment concerns P. aeruginosa PAO1. As to the kind of experiment: MIC, agar plate dilution method, P. aeruginosa PAO1. The experiment is classed as cell-based, Pseudomonas aeruginosa. The note with it: for MIC: Pseudomonas aeruginosa, PAO1, P. aeruginosa PAO1, Sensitive bacterium, read-out: minimal inhibitory concentration (MIC); for minimal inhibitory concentration (MIC): P. aeruginosa PAO1, Sensitive bacterium. The essentials: as §1

Another experiment deals with P. aeruginosa PAO1/GN315. The experiment can be described thus: MIC, agar plate dilution method, P. aeruginosa PAO1/GN315. It is filed as cell-based, Pseudomonas aeruginosa. The note with it: for MIC: Pseudomonas aeruginosa, read-out: minimal inhibitory concentration (MIC), P. aeruginosa PAO1/GN315, AMK-resistant; for minimal inhibitory concentration (MIC): P. aeruginosa PAO1/GN315, AMK-resistant. The essentials:
as §1

The test system of another experiment is S. marcescens TH-0447. The experiment can be described thus: MIC, agar plate dilution method, S. marcescens TH-0447. It is filed as cell-based, Serratia marcescens. The note with it: for MIC: Serratia marcescens, TH0447, S. marcescens TH-0447, AMK-resistant, read-out: minimal inhibitory concentration (MIC); for minimal inhibitory concentration (MIC): S. marcescens TH-0447, AMK-resistant. An outline of the steps:
as §1

For `CNC1C(O[C@H]2OC(CF)[C@@H](N)[C@H](O)C2O)O[C@H]2CC(N)[C@@H](O[C@@H]3C(N)C[C@@H](N)C(O)[C@H]3O)OC2C1O` (some centres unmarked) [Compound J4, 6″-deoxy-6″-fluoroapramycin], the MIC with S. aureus MF490 amounted to 16 µg/mL (≈ 29.5 µM); in the experiment with P. aeruginosa MSC17707, 16 µg/mL (≈ 29.5 µM); with S. aureus RN4220/pMS520, 4 µg/mL (≈ 7.39 µM); in the experiment with S. aureus RN4220, 8 µg/mL (≈ 14.8 µM); with P. aeruginosa MSC01035, 16 µg/mL (≈ 29.5 µM); in experiment [1], 2 µg/mL (≈ 3.69 µM). The MIC in [2] worked out at 32 µg/mL (≈ 59.1 µM); in experiment [3], 2 µg/mL (≈ 3.69 µM); in the experiment on E. faecium ATCC19434, 32 µg/mL (≈ 59.1 µM); with E. coli JM109/pMW218, 2 µg/mL (≈ 3.69 µM); with S. marcescens GN6944, 16 µg/mL (≈ 29.5 µM); in the experiment with P. aeruginosa PAO1, 8 µg/mL (≈ 14.8 µM). In addition, the results for the MIC in the experiment with P. aeruginosa PAO1/GN315 and in the experiment with S. marcescens TH-0447 were 8 µg/mL (≈ 14.8 µM) and 16 µg/mL (≈ 29.5 µM), respectively.

`CN[C@@H]1[C@@H](O[C@H]2O[C@H](C)[C@@H](N)C[C@H]2O)O[C@H]2C[C@@H](N)[C@@H](O[C@H]3[C@H](O)[C@@H](O)[C@H](N)C[C@@H]3N)O[C@@H]2[C@@H]1O` [Compound K4, 3″,6″-dideoxyapramycin]: the “minimal inhibitory concentration (MIC)” value with S. aureus MF490 came out at 8 µg/mL (≈ 15.8 µM); with P. aeruginosa MSC17707, 16 µg/mL (≈ 31.5 µM); in the experiment on S. aureus RN4220/pMS520, 2 µg/mL (≈ 3.94 µM); with S. aureus RN4220, 2 µg/mL (≈ 3.94 µM); with P. aeruginosa MSC01035 it was 16 µg/mL (≈ 31.5 µM); in experiment [1], 1 µg/mL (≈ 1.97 µM). In addition, the “minimal inhibitory concentration (MIC)” value in [2] came to 16 µg/mL (≈ 31.5 µM); in [3], 2 µg/mL (≈ 3.94 µM); in the experiment with E. faecium ATCC19434 it was 8 µg/mL (≈ 15.8 µM); with E. coli JM109/pMW218 it was 1 µg/mL (≈ 1.97 µM); in the experiment on S. marcescens GN6944 it was 4 µg/mL (≈ 7.88 µM); in the experiment on P. aeruginosa PAO1, 8 µg/mL (≈ 15.8 µM). The “minimal inhibitory concentration (MIC)” value with P. aeruginosa PAO1/GN315 and in the experiment on S. marcescens TH-0447 was 8 µg/mL (≈ 15.8 µM) in each case.

Take `CNC1C(O[C@H]2OC(C)[C@@H](N)[C@H](O)C2O)O[C@H]2CC(N)[C@@H](O[C@H]3CC(O)[C@H](N)CC3N)OC2C1O` (some centres unmarked) [Compound L5, 5,6″-dideoxyapramycin]: the MIC with S. aureus MF490 came out at 4 µg/mL (≈ 7.88 µM); with P. aeruginosa MSC17707, 8 µg/mL (≈ 15.8 µM); in the experiment on S. aureus RN4220/pMS520, 1 µg/mL (≈ 1.97 µM); with S. aureus RN4220, 2 µg/mL (≈ 3.94 µM); in the experiment on P. aeruginosa MSC01035, 8 µg/mL (≈ 15.8 µM); in [1], 1 µg/mL (≈ 1.97 µM). For the same compound, the MIC came to 8 µg/mL (≈ 15.8 µM) in experiment [2]; 1 µg/mL (≈ 1.97 µM) in [3]; 8 µg/mL (≈ 15.8 µM) with E. faecium ATCC19434; 1 µg/mL (≈ 1.97 µM) with E. coli JM109/pMW218; 4 µg/mL (≈ 7.88 µM) in the experiment on S. marcescens GN6944; 4 µg/mL (≈ 7.88 µM) with P. aeruginosa PAO1. Also, the MIC in the experiment with P. aeruginosa PAO1/GN315 and in the experiment on S. marcescens TH-0447 was 4 µg/mL (≈ 7.88 µM) each time.

Regarding `CN[C@@H]1[C@@H](O[C@H]2O[C@H](CO)[C@@H](N)C[C@H]2O)O[C@H]2C[C@@H](N)[C@@H](O[C@H]3C[C@@H](O)[C@H](N)C[C@@H]3N)O[C@@H]2[C@@H]1O` [Compound M7, 5,3″-dideoxyapramycin], the “minimal inhibitory concentration (MIC)” value in the experiment with S. aureus MF490 amounted to 4 µg/mL (≈ 7.88 µM); in the experiment with P. aeruginosa MSC17707 it was 4 µg/mL (≈ 7.88 µM); in the experiment on S. aureus RN4220/pMS520, 1 µg/mL (≈ 1.97 µM); with S. aureus RN4220, 2 µg/mL (≈ 3.94 µM); with P. aeruginosa MSC01035, 4 µg/mL (≈ 7.88 µM); in [1], 1 µg/mL (≈ 1.97 µM). Moreover, the “minimal inhibitory concentration (MIC)” value in experiment [2] was found to be 8 µg/mL (≈ 15.8 µM); in experiment [3], 1 µg/mL (≈ 1.97 µM); in the experiment with E. faecium ATCC19434, 16 µg/mL (≈ 31.5 µM); with E. coli JM109/pMW218 it was 0.5 µg/mL (≈ 0.985 µM); with S. marcescens GN6944, 4 µg/mL (≈ 7.88 µM); in the experiment with P. aeruginosa PAO1 it was 4 µg/mL (≈ 7.88 µM). The results for the “minimal inhibitory concentration (MIC)” value in the experiment on P. aeruginosa PAO1/GN315 and in the experiment on S. marcescens TH-0447 were 4 µg/mL (≈ 7.88 µM) and 8 µg/mL (≈ 15.8 µM), respectively.
